Laboratory results: patent US12409206B2, “Use of cyclosporine analogues for treating fibrosis” (Hepion Pharmaceuticals, Inc., priority 2020, dated 2025)

Key:
[1] = test system: human precision cut liver slices (PCLS); assay: PCLS RNA-Seq, general statements (protocol not stated); type: cell-based
Procedure: (§1) PCLS were obtained from 5 human donors who underwent resection of liver cancer. Replicate slices were collected from healthy margins of the resections and cultured for 4 or 6 days depending on the experimental protocol. In the Nonstimulation Protocol slices were cultured for 6 days and treated for the entire period with DMSO vehicle or 5 μM CRV431. In the Stimulation Protocol slices were rested for 1 day and then administered the cytokines, TGFβ and PDGF-BB, for 3 days to stimulate inflammation and fibrosis. […]
(§2) Four types of evaluations were conducted on the PCLS: (a) secretion of inflammation and fibrosis biomarkers into the culture medium, (b) histological staining and quantitation of Sirius red as a measure of tissue fibrosis, (c) gene expression of inflammation and fibrosis biomarkers by RT-PCR, and (d) RNA sequencing (RNA-Seq) of the complete transcriptome. […] ELISAs were used to quantify secretion of monocyte chemoattractant protein (MCP-1), interleukin-6 (IL-6), tissue inhibitor of metalloproteinase-1 (TIMP1), hyaluronic acid, fibronectin, and collagen 1α1. For each donor the mean level of biomarker secretion in each treatment group was expressed as a percentage change relative to DMSO vehicle, the percentages averaged for all donors, and finally the mean daily percentage change calculated from all days of evaluation. […]

liver = conditions: a number of in vivo models; cited from earlier work
[2] = test system: five different types of fibroblasts; assay: Cell viability, summary over five types of fibroblasts; type: cell-based, Human; conditions: at clinically relevant concentrations
[3] = test system: mouse unilateral ureteral obstruction (UUO) model of kidney fibrosis; assay: Mouse unilateral ureteral obstruction (UUO) model of kidney fibrosis, Sirius red; type: in vivo, C57BL/6 mice; conditions: 50 mg/kg/day daily oral gavage for 13 days; vs vehicle; per-section and per-animal; one-way ANOVA with Tukey
Procedure: This example describes a study conducted in the mouse unilateral ureteral obstruction (UUO) model of kidney fibrosis. Seven-week-old female C57BL/6 mice were used in this study (n=8 mice per group). Sham group mice received no UUO. The remaining mice underwent complete surgical ligation of the left ureter. Vehicle and CRV431 at 50 mg/kg/day were administered by daily oral gavage for 13 days starting on the day of surgery. Mice were sacrificed on Day 14, and left kidneys were processed histologically and stained for fibrotic collagen with Sirius red. The percentage of each histological section with Sirius red staining was measured morphometrically in 5 sections from each kidney. Results are shown in FIG. 7A (showing Sirius red in individual tissue sections) and 7B (showing Sirius red in individual mice (5 tissue sections per mouse)).

[4] = test system: Human adult dermal fibroblasts; assay: Procollagen and fibronectin ELISA of spent medium, dermal fibroblast culture; type: cell-based; conditions: medium from Day 1-2 of treatment, in the absence or presence of 10 ng/ml EGF or 0.4 ng/ml TGFβ
Procedure: Human adult dermal fibroblasts (Lonza Bioscience, Cat. #CC-2511) were cultured in 96-well plates. Treatments were applied in triplicate wells (applied 100 ul treatments per well) for 1 day, then re-applied for one additional day. Cells were near confluence at the start of treatments. […] Spent culture medium collected from Day 1-2 of treatment was assayed for procollagen and fibronectin by enzyme-linked immunosorbent assays (ELISA) (Procollagen ELISA antibody pair (ab216064) and fibronectin ELISA antibody pair (ab222262) from Abcam). Procollagen and fibronectin were not detected in medium not applied to cells. Procollagen and fibronectin levels in the medium are represented by means±SD (bars) from 3 replicate wells (open circles). […].

[5] = test system: human precision cut liver slices (PCLS); assay: PCLS biomarker secretion (ELISA); type: cell-based
Procedure: PCLS were obtained from 5 human donors who underwent resection of liver cancer. Replicate slices were collected from healthy margins of the resections and cultured for 4 or 6 days depending on the experimental protocol. In the Nonstimulation Protocol slices were cultured for 6 days and treated for the entire period with DMSO vehicle or 5 μM CRV431. In the Stimulation Protocol slices were rested for 1 day and then administered the cytokines, TGFβ and PDGF-BB, for 3 days to stimulate inflammation and fibrosis. DMSO vehicle, CRV431 (1 and 5 μM), Alk5i (10 μM), obeticholic acid (5 μM), elafibranor (5 μM), resmetirom ([…]), and Aramchol (5 μM) were administered individually as drug treatments in the Stimulation Protocol concurrent with TGFβ+PDGF-BB. Culture medium treatments were replaced daily.
Four types of evaluations were conducted on the PCLS: (a) secretion of inflammation and fibrosis biomarkers into the culture medium, (b) histological staining and quantitation of Sirius red as a measure of tissue fibrosis, (c) gene expression of inflammation and fibrosis biomarkers by RT-PCR, and (d) RNA sequencing (RNA-Seq) of the complete transcriptome. Each of the four types of evaluation is described below: • (a) Biomarker secretion. Spent culture medium was collected daily from duplicate slices for each treatment. ELISAs were used to quantify secretion of monocyte chemoattractant protein (MCP-1), interleukin-6 (IL-6), tissue inhibitor of metalloproteinase-1 (TIMP1), hyaluronic acid, fibronectin, and collagen 1α1. For each donor the mean level of biomarker secretion in each treatment group was expressed as a percentage change relative to DMSO vehicle, the percentages averaged for all donors, and finally the mean daily percentage change calculated from all days of evaluation. […] Sirius red was quantified morphometrically in the histological sections as the percentage area with Sirius red staining in 10 sections from each treatment. In the Nonstimulation Protocol the quantity of Sirius red staining was expressed relative to the vehicle group. In the Stimulation Protocol the quantity of Sirius red staining was expressed relative to nonstimulated PCLS (0%) and TGFβ+PDGF-BB-stimulated+vehicle PCLS (100%). […] RNA was isolated from duplicate liver slices per treatment at the end of the experiments and evaluated by RT-PCR for 5 markers of inflammation and fibrosis: MCP-1, IL-6, TIMP1, αSMA, and collagen 1α1. β actin was used as a reference gene to calculate relative levels of each target gene RNA. […] RNA sequencing of the complete transcriptome (30 million reads per sample) was conducted on vehicle and 5 μM CRV431 treatment groups from 3 donors both from the Nonstimulation and Stimulation Protocols. […]

[6] = test system: human precision cut liver slices (PCLS); assay: PCLS Sirius red tissue fibrosis, Stimulation Protocol (TGFβ+PDGF-BB); type: cell-based; conditions: compared with other NASH drug candidates
Procedure: as §1, §2

[7] = test system: five different types of fibroblasts; assay: ECM production (procollagen, fibronectin ELISA), summary over five types of fibroblasts; type: cell-based, Human; conditions: dose-dependent; at clinically relevant concentrations
Source text: In the present example, five different types of fibroblasts, including (1) lung fibroblasts from a patient with idiopathic pulmonary fibrosis (“IPF”), (2) cardiac fibroblasts, (3) dermal (skin) fibroblasts, (4) renal mesangial cells, and (5) the LX2 hepatic stellate cell line, were used to determine the ability of CRV431 in decreasing production of the ECM molecules, collagen and fibronectin.
The extent of inhibition was similar whether or not the cells were stimulated with the profibrotic agent, transforming growth factor-beta (TGFβ), consistent with direct effects on ECM synthesis.

HIV = conditions: preclinical studies; cited from earlier work
hepatitis B = conditions: preclinical studies; cited from earlier work

In the case of `CC[C@@H]1NC(=O)[C@H]([C@H](O)[C@H](C)CCCCCCNC(C)=O)N(C)C(=O)[C@H](C(C)C)N(C)C(=O)[C@H](CC(C)C)N(C)C(=O)[C@H](CC(C)C)N(C)C(=O)[C@@H](C)NC(=O)[C@H](C)NC(=O)[C@H](CC(C)C)N(C)C(=O)[C@H](C(C)C)NC(=O)[C@H](CC(C)C)N(C)C(=O)[C@@H](C)N(C)C1=O` [CRV431], the “expression of many fibrosis-related genes (more than 10 collagen genes, collagen hydroxylases and oxidases, ACTA2, VEGF, TIMPs)” value [1] is given as “decreased expression”, the “anti-fibrotic activity in the liver” value (liver) is given as “anti-fibrotic activity” and the cell viability [2] is given as “without causing any reduction in cell viability”. The “Sirius red staining (fibrotic collagen) of left kidney” value [3] was “statistically significant decrease”, the “abundance of fibronectin in the medium” value [4] was “dose-dependently decreased” and the “abundance of procollagen in the medium” value [4] was “dose-dependently decreased”. The “mean daily secretion of all markers” value ([5]; CRV431 applied at 5 μM, markers MCP-1, IL-6, TIMP1, hyaluronic acid, fibronectin, collagen 1α1) was “decreased”, the “secretion of collagen1α1, fibronectin, hyaluronic acid, IL-6, and MCP-1” value ([5]; ELISA) was “reduced secretion” and the “preventing TGFβ+PDGF-BB-induced tissue fibrosis” value [6] was “most effective of five NASH drug candidates”. The “decrease of ECM production” value [7] was “up to 55%”, the anti-viral activity (HIV) was “shows anti-viral activity” and the anti-viral activity (hepatitis B) was “shows anti-viral activity”.
